Experimental data as given in patent publication US20170157161A1, “Anti-Cancer Therapies” (Threshold Pharmaceuticals, Inc., priority 2015, published 2017).

Legend:
[1] = tested on: advanced pancreatic cancer; details: patients with advanced pancreatic cancer; cited from earlier work
[2] = tested on: pancreatic cancer cell lines; details: in vitro; cited from earlier work
[3] = tested on: HS766-T human pancreatic cancer cells; experiment: HS766-T human pancreatic tumor model in NMRI nu/nu mice; format: in vivo
Experimental: (§1) A combination of glufosfamide and gemcitabine was administered daily for 7 days to female NMRI nu/nu mice that were carrying tumors derived from HS766-T or As-PC-1 human pancreatic cancer cells. Mice were administered doses of vehicle control (0.9% sodium chloride solution, i.v.), gemcitabine (i.p.), glufosfamide (i.v.) or gemcitabine/glufosfamide combinations once daily for 7 consecutive days. A dose of 1.25 mg/kg was used as the standard dose for gemcitabine throughout the study.

[4] = tested on: As-PC-1 human pancreatic cancer cells; experiment: As-PC-1 human pancreatic tumor model in NMRI nu/nu mice; format: in vivo; details: glufosfamide i.v. and gemcitabine 1.25 mg/kg i.p., alone or in combination, once daily for 7 days
Experimental: as §1

[5] = tested on: MiPaca2 human pancreatic cancer cells; experiment: MiPaca2 human pancreatic tumor model in nude mice; format: in vivo
Experimental: A combination of glufosfamide and gemcitabine was administered to nude mice that were carrying tumors derived from type MiPaca2 human pancreatic cancer cells. Mice were administered doses of vehicle control, gemcitabine, glufosfamide, or gemcitabine/glufosfamide combinations as tabulated in Table 1 below (10 mice/group). Glufosfamide was administered i.v., daily for 14 days (Groups 1-4 and 7-12). Gemcitabine was administered at 300 mg/kg, i.p., once a week for three weeks (Groups 6 and 10-12). Gemcitabine was administered at 150 mg/kg, i.p., twice a week for three weeks (Groups 5 and 7-9).

Question: With `Nc1nc2[nH]cc(CCc3ccc(C(=O)N[C@@H](CCC(=O)O)C(=O)O)cc3)c2c(=O)[nH]1` [Pemetrexed] as the compound, how does the activity in patients [1] read?
Answer: Its activity in patients is “has shown activity in patients with advanced pancreatic cancer”.

Question: And the “activity against pancreatic cancer cell lines” value [2]?
Answer: Its value is “active against pancreatic cancer cell lines in vitro”.

Question: With `Nc1ccn([C@@H]2O[C@H](CO)[C@@H](O)C2(F)F)c(=O)n1` [gemcitabine, 2′-deoxy-2′,2′-difluoro-cytidine] as the compound, how does the “inhibitory effect on tumor progression” value ([3]; gemcitabine alone 1.25 mg/kg i.p. once daily for 7 days) read?
Answer: The value was “only a marginal inhibitory effect on tumor progression”.

Question: And the “inhibitory effect on tumor growth” value [4]?
Answer: Its value is “no apparent inhibitory effect on tumor growth”.

Question: What about the “deaths of the animals” value ([5]; Group 5: gemcitabine 150 mg/kg i.p. twice a week for three weeks) of the same compound?
Answer: Its value is “rapid deaths of the animals”.

Question: And the “reduction in tumor size” value ([5]; Group 6: gemcitabine 300 mg/kg i.p. once a week for three weeks)?
Answer: The value was “Approximately 50%”.

Question: Which results are given for `O=P(NCCCl)(NCCCl)O[C@@H]1O[C@H](CO)[C@@H](O)[C@H](O)[C@H]1O` [glufosfamide, β-D-glucosyl-ifosfamide mustard]?
Answer: onset of tumor growth ([3]; 10 mg/kg glufosfamide i.v. once daily for 7 days, compared with gemcitabine alone or vehicle control): dramatic delay in the onset of tumor growth; inhibitory effect on tumor growth [4]: no apparent inhibitory effect on tumor growth; reduction in tumor size ([5]; Group 3: glufosfamide 30 mg/kg i.v. daily for 14 days): modest reduction in tumor size; reduction in tumor size ([5]; Group 4: glufosfamide 100 mg/kg i.v. daily for 14 days): modest reduction in tumor size
